According to patent publication US10246456B2, “IRAK4 inhibiting agents” (BIOGEN MA INC., priority 2014, dated 2019):
pIC50: −log10 of the molar value.

Target: IRAK4 (Homo sapiens (Human), UniProt Q9NWZ3)
Test: IRAK-4 AlphaScreen biochemical kinase assay
Settings: 1 nM IRAK4, 1 mM ATP, 3.5 h at RT
Protocol: The biochemical assay is in a AlphaScreen format. The kinase reaction is based on the IRAK-4 phosphorylation of a biotin labeled peptide. The phosphopeptide is incubated with anti-phosphothreonine antibody as well as streptavidin- and protein A-coated beads. Binding of the protein-A coated beads to the antibody and the streptavidin beads to the peptide, leads to an energy transfer from one bead to the other, ultimately producing a luminescent/fluorescent signal.

Sequence of IRAK4 (Q9NWZ3 whole entry, species assumed): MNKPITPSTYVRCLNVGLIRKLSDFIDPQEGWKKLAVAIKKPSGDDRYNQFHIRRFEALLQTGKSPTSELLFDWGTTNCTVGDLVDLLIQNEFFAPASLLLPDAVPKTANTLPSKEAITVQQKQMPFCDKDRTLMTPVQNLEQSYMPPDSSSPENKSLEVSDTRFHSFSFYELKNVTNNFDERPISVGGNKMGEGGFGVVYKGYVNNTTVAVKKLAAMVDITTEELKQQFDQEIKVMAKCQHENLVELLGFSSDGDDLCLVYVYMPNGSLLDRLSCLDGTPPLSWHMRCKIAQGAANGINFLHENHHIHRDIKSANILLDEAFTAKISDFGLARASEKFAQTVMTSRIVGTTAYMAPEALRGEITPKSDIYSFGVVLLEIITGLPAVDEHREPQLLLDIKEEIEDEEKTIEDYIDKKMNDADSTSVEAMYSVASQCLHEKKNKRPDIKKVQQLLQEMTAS

| pIC50 | Compound |
| --- | --- |
| 6.00 to 7.00 | Cc1cccc(-n2ncc3ccc(-c4cccc(C(N)=O)n4)cc32)n1 [Example 248, 6-(1-(6-methylpyridin-2-yl)-1H-indazol-6-yl)picolinamide] |
| > 7.00 | C=CC[C@H](N)c1cccc(-c2ccc3cnn(-c4cccc(CO)n4)c3c2)n1 [Example 435, (S)-(6-(6-(6-(1-aminobut-3-en-1-yl)pyridin-2-yl)-1H-indazol-1-yl)pyridin-2-yl)methanol] |
| > 7.00 | CCC[C@H](N)c1ccnc(-c2cc(OCC)c3cnn(-c4cccc(CO)n4)c3c2)n1 [Example 583, (S)-(6-(6-(4-(1-aminobutyl)pyrimidin-2-yl)-4-ethoxy-1H-indazol-1-yl)pyridin-2-yl)methanol] |
| 6.00 to 7.00 | Cc1cccc(-n2ncc3ccc(-c4ccc(Cl)c(C(C)N)n4)cc32)n1 (stereo not shown) [Example 266, 1-(3-chloro-6-(1-(6-methylpyridin-2-yl)-1H-indazol-6-yl)pyridin-2-yl)ethanamine] |
| < 5.00 | CC(=O)c1cccc(-c2ccc3cnn(-c4nc(C)cs4)c3c2)n1 [Example 239] |
| 5.00 to 6.00 | N#Cc1cncc(-c2ccc3cnn(-c4cccc(C(F)(F)F)n4)c3c2)n1 [Example 92, 6-(1-(6-(trifluoromethyl)pyridin-2-yl)-1H-indazol-6-yl)pyrazine-2-carbonitrile] |
| 5.00 to 6.00 | Cc1ccnc(-n2ncc3ccc(-c4cccc(C(C)N)n4)cc32)n1 (stereo not shown) [Example 296, 1-(6-(1-(4-methylpyrimidin-2-yl)-1H-indazol-6-yl)pyridin-2-yl)ethanamine] |
| > 7.00 | CC(N)c1cccc(-c2ccc3cnn(-c4cccc(CCO)n4)c3c2)n1 (stereo not shown) [Example 314, 2-(6-(6-(6-(1-aminoethyl)pyridin-2-yl)-1H-indazol-1-yl)pyridin-2-yl)ethanol] |
| > 7.00 | COC(=O)c1cc(-c2cccc(C(C)N)n2)cc2c1cnn2-c1cccc(C)n1 (stereo not shown) [Example 112, methyl 6-(6-(1-aminoethyl)pyridin-2-yl)-1-(6-methylpyridin-2-yl)-1H-indazole-4-carboxylate] |
| > 7.00 | COCCOc1cc(-c2cccc([C@@H](N)CCCO)n2)cc2c1cnn2-c1cncc(CO)n1 [Example 428, (S)-4-amino-4-(6-(1-(6-(hydroxymethyl)pyrazin-2-yl)-4-(2-methoxyethoxy)-1H-indazol-6-yl)pyridin-2-yl)butan-1-ol] |
| > 7.00 | Cc1cccc(-c2ncc3ccc(-c4cccc(C(C)N)n4)cn23)n1 (stereo not shown) [Example 99, 1-(6-(3-(6-methylpyridin-2-yl)imidazo[1,5-a]pyridin-6-yl)pyridin-2-yl)ethanamine] |
| 6.00 to 7.00 | N#Cc1cccc(-n2ncc3ccc(-c4cccc(CN)n4)cc32)n1 [Example 46, 6-(6-(6-(aminomethyl)pyridin-2-yl)-1H-indazol-1-yl)picolinonitrile] |
| > 7.00 | COCc1cccc(-n2ncc3ccc(-c4cccc(C(C)N)n4)cc32)n1 (stereo not shown) [Example 279, 1-(6-(1-(6-(methoxymethyl)pyridin-2-yl)-1H-indazol-6-yl)pyridin-2-yl)ethanamine] |
| > 7.00 | CC[C@@H](N)c1cccc(-c2cc(-c3cc(C)n(C)n3)c3cnn(-c4cccc(CO)n4)c3c2)n1 [Example 390, (R)-(6-(6-(6-(1-aminopropyl)pyridin-2-yl)-4-(1,5-dimethyl-1H-pyrazol-3-yl)-1H-indazol-1-yl)pyridin-2-yl)methanol] |
| 5.00 to 6.00 | CC(=O)c1cccc(-c2cc(N(C)C(=O)OC(C)(C)C)c3cnn(-c4cccc(C)n4)c3c2)n1 [Example 225, tert-butyl (6-(6-acetylpyridin-2-yl)-1-(6-methylpyridin-2-yl)-1H-indazol-4-yl)(methyl)carbamate] |
| 6.00 to 7.00 | N#Cc1cccc(-n2ncc3ccc(-c4cccc(N)c4)cc32)c1 [Example 20, 3-(6-(3-aminophenyl)-1H-indazol-1-yl)benzonitrile] |
| 6.00 to 7.00 | CNC(=O)C(N)c1cccc(-c2ccc3cnn(-c4cccc(CO)n4)c3c2)n1 (stereo not shown) [Example 567, 2-amino-2-(6-(1-(6-(hydroxymethyl)pyridin-2-yl)-1H-indazol-6-yl)pyridin-2-yl)-N-methylacetamide] |

| pIC50 | Compound |
| --- | --- |
| 5.00 to 6.00 | Cc1ccc(-n2ncc3ccc(-c4cccc(N)c4)cc32)nc1C [Example 24, 3-(1-(5,6-dimethylpyridin-2-yl)-1H-indazol-6-yl)aniline] |
| > 7.00 | COC(=O)c1cc(-c2cccc(C(C)N)n2)cc2c1cnn2-c1cccc(C(F)(F)F)n1 (stereo not shown) [Example 56, methyl 6-(6-(1-aminoethyl)pyridin-2-yl)-1-(6-(trifluoromethyl)pyridin-2-yl)-1H-indazole-4-carboxylate] |
| > 7.00 | COCCOc1cc(-c2cccc([C@@H](N)C(F)CCO)n2)cc2c1cnn2-c1cccc(CO)n1 (stereo partly drawn) [Example 430, (4R)-4-amino-3-fluoro-4-(6-(1-(6-(hydroxymethyl)pyridin-2-yl)-4-(2-methoxyethoxy)-1H-indazol-6-yl)pyridin-2-yl)butan-1-ol] |
| > 7.00 | CC(N)c1cccc(-c2ccc3cnn(-c4cccc(C(F)(F)F)n4)c3c2)n1 (single isomer, unassigned; isomer a) [Example 83, 1-(6-(1-(6-(trifluoromethyl)pyridin-2-yl)-1H-indazol-6-yl)pyridin-2-yl)ethanamine-isomer A] |
| > 7.00 | N#Cc1cccc(-n2ncc3ccc(-c4cncc(N)c4)cc32)n1 [Example 29, 6-(6-(5-aminopyridin-3-yl)-1H-indazol-1-yl)picolinonitrile] |
| > 7.00 | CNC(C)c1cccc(-c2ccc3cnn(-c4cccc(C(F)(F)F)n4)c3c2)n1 (single isomer, unassigned) [Example 117, N-methyl-1-(6-(1-(6-(trifluoromethyl)pyridin-2-yl)-1H-indazol-6-yl)pyridin-2-yl)ethanamine] |
| 6.00 to 7.00 | CC(=O)NCc1cc(-c2cccc(C(C)N)n2)cc2c1cnn2-c1cccc(C)n1 (stereo not shown) [Example 105, N-((6-(6-(1-aminoethyl)pyridin-2-yl)-1-(6-methylpyridin-2-yl)-1H-indazol-4-yl)methyl)acetamide] |
| > 7.00 | NCCNC(=O)c1cc(N)cc(-c2ccc3cnn(-c4cccc(C(F)(F)F)n4)c3c2)c1 [Example 88, 3-amino-N-(2-aminoethyl)-5-(1-(6-(trifluoromethyl)pyridin-2-yl)-1H-indazol-6-yl)benzamide] |
| 6.00 to 7.00 | Cc1cccc(-n2ncc3cc(F)c(-c4cncc(N)c4)cc32)n1 [Example 43, 5-(5-fluoro-1-(6-methylpyridin-2-yl)-1H-indazol-6-yl)pyridin-3-amine] |
| 5.00 to 6.00 | N#CC(N)c1cccc(-c2ccc3cnn(-c4cccc(CO)n4)c3c2)n1 (stereo not shown) [Example 560, 2-amino-2-(6-(1-(6-(hydroxymethyl)pyridin-2-yl)-1H-indazol-6-yl)pyridin-2-yl)acetonitrile] |
| 6.00 to 7.00 | Cc1cccc(-n2ncc3ccc(-c4ccc5c(n4)C(N)CCCC5)cc32)n1 (stereo not shown) [Example 308, 2-(1-(6-methylpyridin-2-yl)-1H-indazol-6-yl)-6,7,8,9-tetrahydro-5H-cyclohepta[b]pyridin-9-amine] |
| > 7.00 | CC(C)(N)c1cccc(-c2ccc3cnn(-c4cccc(C(F)(F)F)n4)c3c2)n1 [Example 129, 2-(6-(1-(6-(trifluoromethyl)pyridin-2-yl)-1H-indazol-6-yl)pyridin-2-yl)propan-2-amine] |
| 6.00 to 7.00 | Cc1cccc(-n2ncc3ccc(-c4cccc(C(C)(C)N)n4)cc32)n1 [Example 298, 2-(6-(1-(6-methylpyridin-2-yl)-1H-indazol-6-yl)pyridin-2-yl)propan-2-amine] |
| > 7.00 | Cc1cc(-c2ccc3cnn(-c4cccc(C)n4)c3c2)nc(C(C)N)c1 (stereo not shown) [Example 124, 1-(4-methyl-6-(1-(6-methylpyridin-2-yl)-1H-indazol-6-yl)pyridin-2-yl)ethanamine] |
| 6.00 to 7.00 | CCC[C@H](N)c1cccc(-c2cc(C(CO)CCl)c3cnn(-c4cccc(CO)n4)c3c2)n1 (stereo partly drawn) [Example 585, 2-(6-(6-((S)-1-aminobutyl)pyridin-2-yl)-1-(6-(hydroxymethyl)pyridin-2-yl)-1H-indazol-4-yl)-3-chloropropan-1-ol] |
| < 5.00 | C/C(=N/O)c1cccc(-c2cc(N(C)C(=O)OC(C)(C)C)c3cnn(-c4cccc(C)n4)c3c2)n1 [Example 226, (Z)-tert-butyl (6-(6-(1-(hydroxyimino)ethyl)pyridin-2-yl)-1-(6-methylpyridin-2-yl)-1H-indazol-4-yl)(methyl)carbamate] |
| 6.00 to 7.00 | OCc1cccc(-n2ncc3ccc(-c4cccc(C5CCCN5)n4)cc32)n1 (stereo not shown) [Example 571, (6-(6-(6-(pyrrolidin-2-yl)pyridin-2-yl)-1H-indazol-1-yl)pyridin-2-yl)methanol] |

| Compound | pIC50 |
| --- | --- |
| CC(N)c1cc(-c2ccc3cnn(-c4cccc(C(F)(F)F)n4)c3c2)ccn1 (stereo not shown) [Example 91, 1-(4-(1-(6-(trifluoromethyl)pyridin-2-yl)-1H-indazol-6-yl)pyridin-2-yl)ethanamine] | 6.00 to 7.00 |
| Nc1cncc(-c2ccc3cnn(-c4cccc(CC(=O)O)n4)c3c2)c1 [Example 82, 2-(6-(6-(5-aminopyridin-3-yl)-1H-indazol-1-yl)pyridin-2-yl)acetic acid] | 5.00 to 6.00 |
| Cc1cccc(-n2ncc3ccc(-c4nccc(N)n4)cc32)n1 [Example 2, 2-(1-(6-methylpyridin-2-yl)-1H-indazol-6-yl)pyrimidin-4-amine] | 5.00 to 6.00 |
| CCC[C@H](N)c1cccc(-c2ccc3cnn(-c4cccc(CO)n4)c3c2)n1 [Example 145, (S)-(6-(6-(6-(1-aminobutyl)pyridin-2-yl)-1H-indazol-1-yl)pyridin-2-yl)methanol] | > 7.00 |
| NCc1cccc(-c2ccc3cnn(-c4cccc(C(F)(F)F)n4)c3c2)n1 [Example 48, (6-(1-(6-(trifluoromethyl)pyridin-2-yl)-1H-indazol-6-yl)pyridin-2-yl)methanamine] | > 7.00 |
| CCCC(N)c1cccc(-c2ccc3cnn(-c4cccc(C)n4)c3c2)n1 (stereo not shown) [Example 132, 1-(6-(1-(6-methylpyridin-2-yl)-1H-indazol-6-yl)pyridin-2-yl)butan-1-amine] | > 7.00 |
